Test results from patent US12419877B2, “Solid forms of {[5-(3-chlorophenyl)-3-hydroxypyridine-2-carbonyl]amino}acetic acid, compositions, and uses thereof” (Akebia Therapeutics, Inc., priority 2013, dated 2025).
Converted amounts (≈) assume the structure as drawn. Read-outs that look alike come from different tables or passages of the source.

Assay: Solubility experiments (approximate solubility by solvent aliquot addition)
Format: physicochemical
Details: thermodynamic from solid
Protocol: Approximately 20 mg of Form A of Compound (1) was placed in each of 48 vials and 5 volume aliquots of the appropriate solvent systems were added to the appropriate vial. Between each addition, the mixture was checked for dissolution and if no dissolution was apparent, the mixture was warmed to ca. 50° C. and checked again. This procedure was continued until dissolution was observed or until 100 volumes of solvent had been added.

solubility (aqueous with cosolvent or surfactant or cyclodextrin, Solvent: MeOH/Water (20%), ca. 50° C., read-out: Solubility (mg/mL) (ca. 50° C.)): < 10 mg/mL
solubility (aqueous with cosolvent or surfactant or cyclodextrin, Solvent: MeOH/Water (50%), RT (ca. 22° C.), read-out: Solubility (mg/mL) RT (ca. 22° C.)): < 10 mg/mL
solubility (aqueous with cosolvent or surfactant or cyclodextrin, Solvent: MeOH/Water (50%), ca. 50° C., read-out: Solubility (mg/mL) (ca. 50° C.)): < 10 mg/mL
solubility (ethyl acetate/cyclohexane (1:2), organic solvent or mixture, Solvent: EtOAc/Cyclohexane (1:2), RT (ca. 22° C.), read-out: Solubility (mg/mL) RT (ca. 22° C.)): < 10 mg/mL
solubility (organic solvent or mixture, Solvent: 1,2-Propanediol, RT (ca. 22° C.), read-out: Solubility (mg/mL) RT (ca. 22° C.)): < 20 mg/mL
solubility (organic solvent or mixture, Solvent: 1,2-Propanediol, ca. 50° C., read-out: Solubility (mg/mL) (ca. 50° C.)): 20 mg/mL (≈ 65.2 mM)
solubility (organic solvent or mixture, Solvent: 1,4-Dioxane, RT (ca. 22° C.), read-out: Solubility (mg/mL) RT (ca. 22° C.)): > 200 mg/mL
solubility (organic solvent or mixture, Solvent: 1,4-Dioxane, ca. 50° C., read-out: Solubility (mg/mL) (ca. 50° C.)): > 200 mg/mL
solubility (organic solvent or mixture, Solvent: 1-Butanol (1-BuOH), RT (ca. 22° C.), read-out: Solubility (mg/mL) RT (ca. 22° C.)): < 20 mg/mL
solubility (organic solvent or mixture, Solvent: 1-Butanol (1-BuOH), ca. 50° C., read-out: Solubility (mg/mL) (ca. 50° C.)): 20 mg/mL (≈ 65.2 mM)
solubility (organic solvent or mixture, Solvent: 1-Propanol (1-PrOH), RT (ca. 22° C.), read-out: Solubility (mg/mL) RT (ca. 22° C.)): < 20 mg/mL
solubility (organic solvent or mixture, Solvent: 1-Propanol (1-PrOH), ca. 50° C., read-out: Solubility (mg/mL) (ca. 50° C.)): 20 mg/mL (≈ 65.2 mM)
solubility (organic solvent or mixture, Solvent: 2-Ethoxyethanol, RT (ca. 22° C.), read-out: Solubility (mg/mL) RT (ca. 22° C.)): < 200 mg/mL
solubility (organic solvent or mixture, Solvent: 2-Ethoxyethanol, ca. 50° C., read-out: Solubility (mg/mL) (ca. 50° C.)): 200 mg/mL (≈ 652 mM)
solubility (organic solvent or mixture, Solvent: 2-Methoxyethanol, RT (ca. 22° C.), read-out: Solubility (mg/mL) RT (ca. 22° C.)): > 200 mg/mL
solubility (organic solvent or mixture, Solvent: 2-Methoxyethanol, ca. 50° C., read-out: Solubility (mg/mL) (ca. 50° C.)): > 200 mg/mL
solubility (organic solvent or mixture, Solvent: 2-Methyl tetrahydrofuran (2-MeTHF), RT (ca. 22° C.), read-out: Solubility (mg/mL) RT (ca. 22° C.)): > 200 mg/mL
solubility (organic solvent or mixture, Solvent: 2-Methyl tetrahydrofuran (2-MeTHF), ca. 50° C., read-out: Solubility (mg/mL) (ca. 50° C.)): > 200 mg/mL
solubility (organic solvent or mixture, Solvent: 2-Propanol (IPA), RT (ca. 22° C.), read-out: Solubility (mg/mL) RT (ca. 22° C.)): < 13 mg/mL
solubility (organic solvent or mixture, Solvent: 2-Propanol (IPA), ca. 50° C., read-out: Solubility (mg/mL) (ca. 50° C.)): 13 mg/mL (≈ 42.4 mM)
solubility (organic solvent or mixture, Solvent: 3-Methyl-1-butanol, RT (ca. 22° C.), read-out: Solubility (mg/mL) RT (ca. 22° C.)): < 10 mg/mL
solubility (organic solvent or mixture, Solvent: 3-Methyl-1-butanol, ca. 50° C., read-out: Solubility (mg/mL) (ca. 50° C.)): < 10 mg/mL
solubility (organic solvent or mixture, Solvent: Acetone/Water (3%), RT (ca. 22° C.), read-out: Solubility (mg/mL) RT (ca. 22° C.)): < 200 mg/mL
solubility (organic solvent or mixture, Solvent: Acetone/Water (3%), ca. 50° C., read-out: Solubility (mg/mL) (ca. 50° C.)): 200 mg/mL (≈ 652 mM)
solubility (organic solvent or mixture, Solvent: Acetone/Water (20%), RT (ca. 22° C.), read-out: Solubility (mg/mL) RT (ca. 22° C.)): < 200 mg/mL
solubility (organic solvent or mixture, Solvent: Acetone/Water (20%), ca. 50° C., read-out: Solubility (mg/mL) (ca. 50° C.)): 200 mg/mL (≈ 652 mM)
solubility (organic solvent or mixture, Solvent: Acetone, RT (ca. 22° C.), read-out: Solubility (mg/mL) RT (ca. 22° C.)): 100 mg/mL (≈ 326 mM)
solubility (organic solvent or mixture, Solvent: Acetone, ca. 50° C., read-out: Solubility (mg/mL) (ca. 50° C.)): > 100 mg/mL
solubility (organic solvent or mixture, Solvent: Acetonitrile, RT (ca. 22° C.), read-out: Solubility (mg/mL) RT (ca. 22° C.)): < 13 mg/mL
solubility (organic solvent or mixture, Solvent: Acetonitrile, ca. 50° C., read-out: Solubility (mg/mL) (ca. 50° C.)): 13 mg/mL (≈ 42.4 mM)
solubility (organic solvent or mixture, Solvent: Anisole, RT (ca. 22° C.), read-out: Solubility (mg/mL) RT (ca. 22° C.)): < 40 mg/mL
solubility (organic solvent or mixture, Solvent: Anisole, ca. 50° C., read-out: Solubility (mg/mL) (ca. 50° C.)): 40 mg/mL (≈ 130 mM)
solubility (organic solvent or mixture, Solvent: Benzonitrile, RT (ca. 22° C.), read-out: Solubility (mg/mL) RT (ca. 22° C.)): < 10 mg/mL
solubility (organic solvent or mixture, Solvent: Benzonitrile, ca. 50° C., read-out: Solubility (mg/mL) (ca. 50° C.)): < 10 mg/mL
solubility (organic solvent or mixture, Solvent: Benzyl alcohol, RT (ca. 22° C.), read-out: Solubility (mg/mL) RT (ca. 22° C.)): < 68 mg/mL
solubility (organic solvent or mixture, Solvent: Benzyl alcohol, ca. 50° C., read-out: Solubility (mg/mL) (ca. 50° C.)): 68 mg/mL (≈ 222 mM)
solubility (organic solvent or mixture, Solvent: Chloroform, RT (ca. 22° C.), read-out: Solubility (mg/mL) RT (ca. 22° C.)): < 10 mg/mL
solubility (organic solvent or mixture, Solvent: Chloroform, ca. 50° C., read-out: Solubility (mg/mL) (ca. 50° C.)): < 10 mg/mL
solubility (organic solvent or mixture, Solvent: Cumene, RT (ca. 22° C.), read-out: Solubility (mg/mL) RT (ca. 22° C.)): < 10 mg/mL
solubility (organic solvent or mixture, Solvent: Cumene, ca. 50° C., read-out: Solubility (mg/mL) (ca. 50° C.)): < 10 mg/mL
solubility (organic solvent or mixture, Solvent: Cyclohexane, RT (ca. 22° C.), read-out: Solubility (mg/mL) RT (ca. 22° C.)): < 10 mg/mL
solubility (organic solvent or mixture, Solvent: Cyclohexane, ca. 50° C., read-out: Solubility (mg/mL) (ca. 50° C.)): < 10 mg/mL
solubility (organic solvent or mixture, Solvent: Cyclohexanone, RT (ca. 22° C.), read-out: Solubility (mg/mL) RT (ca. 22° C.)): < 200 mg/mL
solubility (organic solvent or mixture, Solvent: Cyclohexanone, ca. 50° C., read-out: Solubility (mg/mL) (ca. 50° C.)): 200 mg/mL (≈ 652 mM)
solubility (organic solvent or mixture, Solvent: Dichloromethane (DCM), RT (ca. 22° C.), read-out: Solubility (mg/mL) RT (ca. 22° C.)): < 10 mg/mL
solubility (organic solvent or mixture, Solvent: Dichloromethane (DCM), ca. 50° C., read-out: Solubility (mg/mL) (ca. 50° C.)): < 10 mg/mL
solubility (organic solvent or mixture, Solvent: Diethyl ether, RT (ca. 22° C.), read-out: Solubility (mg/mL) RT (ca. 22° C.)): < 10 mg/mL
solubility (organic solvent or mixture, Solvent: Diethyl ether, ca. 50° C., read-out: Solubility (mg/mL) (ca. 50° C.)): 10 mg/mL (≈ 32.6 mM)
solubility (organic solvent or mixture, Solvent: Diisopropyl ether (DIPE), RT (ca. 22° C.), read-out: Solubility (mg/mL) RT (ca. 22° C.)): < 10 mg/mL
SMILES: O=C(O)CNC(=O)c1ncc(-c2cccc(Cl)c2)cc1O [Form A of Compound (I), {[5-(3-chlorophenyl)-3-hydroxypyridine-2-carbonyl]amino}acetic acid]
